Measured values reported in patent publication US8450308B2 (Vitae Pharmaceuticals, Inc., priority 2008, dated 2013).
pIC50: −log10 of the molar value. Values belong to the compound of their own block, whether it stands above or below them.

Tests used:
[1] = target: T1, truncated human beta-secretase (residues 1-458, His6-tagged at the C-terminus) (Homo sapiens, UniProt P56817); assay: BACE fluorescence quench assay; assay type: biochemical; conditions: in vitro enzyme activity, BACE fluorescence assay, pH 4.5; read-out: IC50
T1 construct: truncated human beta-secretase (residues 1-458, His6-tagged at the C-terminus); His6 (C); made in house; host or cells: insect cells D. melanogaster S2 (baculovirus expression system (so in the source))

[2] = BACE cell assay: soluble Amyloid Beta 1-40 (Aβ 1-40) in culture media of H4-APPsw cells; assay type: cell-based; conditions: in vitro cell activity, H4-APPsw cells, secreted Aβ 1-40, overnight treatment; read-out: IC50
Experimental: H4 neuroglioma cell line that stably expresses Amyloid Precursor Protein (APP) containing the KM-NL Swedish mutation (H4-APPsw) was generated. For the assay, cells are treated overnight in the presence of inhibitor and the culture media are subjected to ELISA analysis of soluble Amyloid Beta 1-40 (Aβ 1-40).
H4 neuroglioma cell line was cultured in DMEM with 10% FBS and 1% penicillin/streptomycin (Culture Medium) at 37° C., 5% CO2. […] 24 hrs after transfection, the cells were replaced into three new plates (150 mm) in fresh Culture Medium with 250 ug/ml Zeocin. […] The levels of APPsw expression were analyzed by immunoblotting and the production of Aβ 1-40 was detected by ELISA of culture supernatants. The selected clones are maintained in Culture Medium with 250 μg/ml Zeocin and routinely split in 3-4 days to maintain 20-80% confluence.
Split cells. Split H4-APPsw cells in Culture Medium and culture overnight such that cells will be ˜80% confluent next morning.
Create Compound Dilution Plate. After determining the desired final concentration of compound to be tested, create a 500× dilution plate. Add DMSO, but not inhibitor, to each well of Column 1. […] Add compounds of interest at 500× desired final concentration to wells A3-A10. Add DMSO, but not inhibitor, to each well of Columns 11 and 12. Dilute contents of Row A 1:3 in Row B. then continue through Rows C—H.
Create Media Plate. To create a 2× solution of compound in media, add 996 μL Culture Medium to each well of a 96-well 2 ml deep well plate (Media Plate) in biosafety hood. Add 4 μL 5 mM control compound to Media Plate wells A1-D1 for determination of full inhibition.
Add media to Cell Plate. With a multichannel pipettor, mix each well of Media Plate several times to insure homogeneity. Add 100 μL of mixture to Black polymer bottom P-D-L plates. Next, place Medium Plate and Cell Plate in the incubator.
Add cells to Cell Plate. Trypsinize and count H4-APPsw cells. Dilute cells 6×10^5 cells/ml in Culture Medium and remove Cell Plate from incubator. Vortex cells to homogeneity, then using a multichannel repeating pipettor, add 100 μL cell suspension to Cell Plate, adding cells from Row H to Row A. Place Cell Plate in incubator.
Change media in Cell Plate. After 5 h, check Cell Plate by microscope to insure cells are attached. In culture hood, remove media from Cell Plate using multichannel repeating pipettor. Add 100 μl Culture Medium to each well. Remove Media Plate from incubator and mix with pipettor as previous. Add 100 μl from each well of Media Plate to corresponding well in Cell Plate. Place Cell Plate in incubator overnight.
Perform ELISA to determine levels of secreted Aβ 1-40. After 16 h incubation, spin Cell Plate for 8 min at 1200 rpm. The primary reading of Aβ 1-40 levels is done using PerkinElmer AlphaLISA technology. Follow the manufacturer's protocol for performing AlphaLISA in a white ½ area Optiwell plate using Row 12 for peptide standard (1:2 dilutions, starting at 15 ng/ml). Data are acquired using PerkinElmer Fusion-Alpha FP-HT, Alpha protocol (Count Time 0.6 s, Count Time Ratio 30%:70%).
Export data from Fusion using Columnar Report format into a separate file for each plate. Upload data into Activity Base using RIA-DOSE-RESPONSE protocol (Version 1). Data from at least eight doses were fitted to a four parameter logistical model using XLfit software to determine potency.

T1 sequence (P56817 22-458): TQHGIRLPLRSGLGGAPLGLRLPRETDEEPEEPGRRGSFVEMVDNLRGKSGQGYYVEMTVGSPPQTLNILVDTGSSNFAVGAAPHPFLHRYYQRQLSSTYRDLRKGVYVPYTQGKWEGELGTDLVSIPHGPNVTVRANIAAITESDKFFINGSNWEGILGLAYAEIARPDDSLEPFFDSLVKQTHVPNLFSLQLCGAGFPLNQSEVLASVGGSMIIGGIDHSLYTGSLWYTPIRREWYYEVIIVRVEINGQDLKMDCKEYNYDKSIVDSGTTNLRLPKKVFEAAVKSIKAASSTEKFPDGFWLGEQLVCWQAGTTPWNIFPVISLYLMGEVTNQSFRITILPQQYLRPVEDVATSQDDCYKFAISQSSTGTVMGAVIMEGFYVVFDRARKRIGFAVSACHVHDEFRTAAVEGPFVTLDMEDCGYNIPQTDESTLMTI

SMILES: CN1O[C@]2(C[C@H]([C@H]3CCCOC3)Oc3ccc(-c4cc(F)cc(F)c4)cc32)N=C1N (racemic) [Compound 316, (±)-(2S,4R)-6-(3,5-difluorophenyl)-2′-methyl-2-((R)-tetrahydro-2H-pyran-3-yl)-2′H-spiro[chroman-4,5′-[1,2,4]oxadiazol]-3′-amine]
pIC50 [1]: 6.30 to 7.00
pIC50 [2]: 5.00 to 5.30

SMILES: CC1CC[C@@]2(CO1)C[C@]1(N=C(N)N(C)O1)c1cc(-c3cc(F)cc(Cl)c3)ccc1O2 (stereo partly shown) [Compound 232]
pIC50 [2]: 6.00 to 6.30

SMILES: COc1cc(Cl)cc(-c2ccc3c(c2)C2(CC4(CCCc5ccccc5C4)O3)N=C(N)N(C)O2)c1 (stereo not shown) [Compound 234]
pIC50 [2]: 5.30 to 6.00

SMILES: CN1O[C@@]2(C[C@@H](C3CCCc4ccccc43)Oc3ccc(-c4ccc(F)c(Cl)c4)cc32)N=C1N (stereo partly shown) [Compound 235]
pIC50 [2]: 5.30 to 6.00

SMILES: CC1CC[C@@]2(CO1)C[C@]1(N=C(N)N(C)O1)c1cc(-c3cccc(Cl)c3)ccc1O2 (stereo partly shown) [Compound 236]
pIC50 [2]: 6.00 to 6.30

SMILES: CN1O[C@@]2(C[C@H]([C@@H]3CCOC(C)(C)C3)Oc3ccc(-c4cccc(C#N)c4)cc32)N=C1N [Compound 237]
pIC50 [2]: 6.00 to 6.30

SMILES: CN1OC2(CC3(CCCc4ccccc4C3)Oc3ccc(C#CC4CC4)cc32)N=C1N (stereo not shown) [Compound 238]
pIC50 [2]: 5.30 to 6.00

SMILES: CN1OC2(CC(C3CCCc4ccccc43)Oc3ccc(-c4cccc(Cl)c4)cc32)N=C1N (stereo not shown) [Compound 239]
pIC50 [2]: 5.30 to 6.00

SMILES: CN1OC2(CC(C3CCCc4ccccc43)Oc3ccc(-c4cc(F)cc(Cl)c4)cc32)N=C1N (stereo not shown) [Compound 240]
pIC50 [2]: 5.00 to 5.30

SMILES: CN1OC2(CC3(CCCc4ccccc4C3)Oc3ccc(-c4cc(F)cc(C(F)(F)F)c4)cc32)N=C1N (stereo not shown) [Compound 242]
pIC50 [2]: 5.30 to 6.00

SMILES: CN1C(=O)[C@@]2(C[C@@H](C3CCCc4ccccc43)Oc3ccc(-c4cccc(C#N)c4)cc32)N=C1N (stereo partly shown) [Compound 245]
pIC50 [2]: 6.00 to 6.30

SMILES: CN1O[C@@]2(C[C@H](C3CCCc4ccccc43)Oc3ccc(-c4cccc(C#N)c4)cc32)N=C1N (stereo partly shown) [Compound 247]
pIC50 [2]: 6.00 to 6.30

SMILES: CC1CC[C@@]2(CO1)C[C@]1(N=C(N)N(C)O1)c1cc(-c3ccc(F)c(Cl)c3)ccc1O2 (stereo partly shown) [Compound 249]
pIC50 [2]: 5.30 to 6.00

SMILES: CN1O[C@@]2(C[C@H](C3CCCc4ccccc43)Oc3ccc(-c4ccc(F)c(Cl)c4)cc32)N=C1N (stereo partly shown) [Compound 252]
pIC50 [2]: 5.30 to 6.00

SMILES: Cc1cc(Br)cc(-c2ccc3c(c2)C2(CC4(CCCOC4)O3)N=C(N)N(C)C2=O)c1F (stereo not shown) [Compound 253]
pIC50 [2]: 6.00 to 6.30

SMILES: CN1OC2(CC(C3CCOC(C)(C)C3)Oc3ccc(-c4cc(F)cc(C#N)c4)cc32)N=C1N (stereo not shown) [Compound 260]
pIC50 [2]: 5.30 to 6.00

SMILES: CN1OC2(CC(C3CCOC(C)(C)C3)Oc3ccc(-c4cc(C#N)ccc4F)cc32)N=C1N (stereo not shown) [Compound 261]
pIC50 [2]: 6.00 to 6.30

SMILES: CN1C(=O)[C@@]2(C[C@@]3(CCCOC3)Oc3ccc(-c4cc(Cl)cc(C#N)c4)cc32)N=C1N [Compound 263]
pIC50 [2]: 6.30 to 7.00

SMILES: CN1OC2(CC(C3CCOC(C)(C)C3)Oc3ccc(-c4cccc(Cl)c4)cc32)N=C1N (stereo not shown) [Compound 264]
pIC50 [2]: 5.30 to 6.00

SMILES: CC(C)C#Cc1ccc2c(c1)C1(CC3(CCCc4ccccc4C3)O2)N=C(N)N(C)O1 (stereo not shown) [Compound 265]
pIC50 [2]: 5.30 to 6.00

SMILES: CN1O[C@]2(C[C@@]3(CCCc4ccccc43)Oc3ccc(-c4cccc(C#N)c4)cc32)N=C1N [Compound 266]
pIC50 [2]: 5.30 to 6.00

SMILES: CN1C(=O)C2(CC(C3CCCOC3)Oc3ccc(-c4cc(F)cc(F)c4)cc32)N=C1N (stereo not shown) [Compound 267]
pIC50 [2]: 6.30 to 7.00

SMILES: CN1OC2(CC(C3CCCc4ccccc43)Oc3ccc(-c4cc(F)cc(C(F)(F)F)c4)cc32)N=C1N (stereo not shown) [Compound 269]
pIC50 [2]: 5.00 to 5.30

SMILES: CN1C(=O)[C@@]2(C[C@@]3(CCCOC3)Oc3ccc(-c4cc(F)cc(Cl)c4)cc32)N=C1N [Compound 270]
pIC50 [2]: 6.00 to 6.30

SMILES: COc1cc(F)cc(-c2ccc3c(c2)[C@]2(C[C@]4(CCCOC4)O3)N=C(N)N(C)C2=O)c1 [Compound 271]
pIC50 [2]: 6.00 to 6.30

SMILES: C[C@H]1CC[C@]2(CO1)CC1(N=C(N)N(C)O1)c1cc(-c3cccc(C#N)c3)ccc1O2 (stereo partly drawn) [Compound 272, 3-(3″-amino-2″-methyl-4″,5″-dihydro-2″H-spiro(spiro(chroman-2,3′-[(2R,6R/2S,6S)-2,4,5,6-tetrahydro-6-methyl-pyran])-(4R/4S)-4,5″-[1,2,4]oxadiazole)-6-yl)benzonitrile]
pIC50 [2]: 6.00 to 6.30

SMILES: CN1C(=O)C2(CC(C3CCCOC3)Oc3ccc(-c4cccc(F)c4)cc32)N=C1N (stereo not shown) [Compound 273]
pIC50 [2]: 6.00 to 6.30

SMILES: COc1cc(Cl)cc(-c2ccc3c(c2)C2(CC4(CCC(C)OC4)O3)N=C(N)N(C)O2)c1 (stereo not shown) [Compound 274]
pIC50 [2]: 5.30 to 6.00

SMILES: C[C@@H]1CC[C@@]2(CO1)CC1(N=C(N)N(C)O1)c1cc(-c3cccc(C#N)c3)ccc1O2 (stereo partly drawn) [Compound 275, 3-(3″-amino-2″-methyl-4″,5″-dihydro-2″H-spiro(spiro(chroman-2,3′-[(2R,6R/2S,6S)-2,4,5,6-tetrahydro-6-methyl-pyran])-(4S/4S)-4,5″-[1,2,4]oxadiazole)-6-yl)benzonitrile]
pIC50 [2]: 6.00 to 6.30

SMILES: Cc1cc(C)cc(-c2ccc3c(c2)[C@]2(C[C@]4(CCCOC4)O3)N=C(N)N(C)C2=O)c1 [Compound 276]
pIC50 [2]: 6.00 to 6.30

SMILES: Cc1ccc(C#N)cc1-c1ccc2c(c1)[C@]1(C[C@]3(CCCOC3)O2)N=C(N)N(C)C1=O [Compound 277]
pIC50 [2]: 6.30 to 7.00

SMILES: COc1cc(Cl)cc(-c2ccc3c(c2)C2(CC(C4CCCc5ccccc54)O3)N=C(N)N(C)O2)c1 (stereo not shown) [Compound 278]
pIC50 [2]: 5.00 to 5.30

More lines, now with the values ahead:

pIC50 [2]: 6.30 to 7.00
SMILES: CN1C(=O)C2(CC(C3CCOC(C)(C)C3)Oc3ccc(-c4cc(F)cc(F)c4F)cc32)N=C1N (stereo not shown) [Compound 229]

pIC50 [2]: 7.00 to 9.00
SMILES: CN1C(=O)C2(C[C@H]([C@H]3CCOC(C)(C)C3)Oc3ccc(-c4cccc(C#N)c4)cc32)N=C1N (stereo partly shown) [Compound 230]

pIC50 [2]: 6.30 to 7.00
SMILES: CN1C(=O)C2(C[C@H](C3CCOC(C)(C)C3)Oc3ccc(-c4cc(F)cc(F)c4)cc32)N=C1N (stereo partly shown) [Compound 231]

pIC50 [2]: 6.30 to 7.00
SMILES: CN1C(=O)[C@@]2(C[C@]3(CCCOC3)Oc3ccc(-c4ccc(F)c(Cl)c4)cc32)N=C1N [Compound 233]

pIC50 [2]: 6.30 to 7.00
SMILES: CN1C(=O)C2(C[C@H](C3CCOC(C)(C)C3)Oc3ccc(-c4cccc(F)c4)cc32)N=C1N (stereo partly shown) [Compound 241]

pIC50 [2]: 6.30 to 7.00
SMILES: CN1C(=O)[C@@]2(C[C@]3(CCCOC3)Oc3ccc(-c4cccc(C(F)(F)F)c4)cc32)N=C1N [Compound 243]

pIC50 [2]: 6.30 to 7.00
SMILES: Cc1cccc(-c2ccc3c(c2)C2(CC(C4CCOC(C)(C)C4)O3)N=C(N)N(C)C2=O)c1F (stereo not shown) [Compound 244]

pIC50 [2]: 6.30 to 7.00
SMILES: CN1OC2(CC(C3CCOC(C)(C)C3)Oc3ccc(-c4cc(C#N)cc(C#N)c4)cc32)N=C1N (stereo not shown) [Compound 248]

pIC50 [2]: 6.30 to 7.00
SMILES: CN1C(=O)[C@@]2(C[C@]3(CCCOC3)Oc3ccc(-c4cc(F)cc(C#N)c4)cc32)N=C1N [Compound 250]

pIC50 [2]: 6.30 to 7.00
SMILES: CN1OC2(C[C@@]3(CCCc4ccccc4C3)Oc3ccc(-c4cccc(C#N)c4)cc32)N=C1N (stereo partly shown) [Compound 251]

pIC50 [2]: 6.30 to 7.00
SMILES: CN1C(=O)C2(C[C@H](C3CCOC(C)(C)C3)Oc3ccc(-c4ccc(F)c(F)c4)cc32)N=C1N (stereo partly shown) [Compound 254]

pIC50 [2]: 6.30 to 7.00
SMILES: CN1C(=O)[C@@]2(C[C@]3(CCCOC3)Oc3ccc(-c4cc(C#N)cc(C#N)c4)cc32)N=C1N [Compound 255]

pIC50 [2]: 6.30 to 7.00
SMILES: COc1cc(Cl)cc(-c2ccc3c(c2)[C@]2(C[C@@]4(CCCOC4)O3)N=C(N)N(C)C2=O)c1 [Compound 256]

pIC50 [2]: 6.30 to 7.00
SMILES: CN1OC2(CC(C3CCOC(C)(C)C3)Oc3ccc(-c4cc(C#N)cc(C(F)(F)F)c4)cc32)N=C1N (stereo not shown) [Compound 257]

pIC50 [2]: 6.30 to 7.00
SMILES: CN1O[C@]2(C[C@H](C3CCOC(C)(C)C3)Oc3ccc(-c4cccc(C#N)c4)cc32)N=C1N (stereo partly shown) [Compound 258]

pIC50 [2]: 6.30 to 7.00
SMILES: CN1C(=O)[C@@]2(C[C@]3(CCCOC3)Oc3ccc(-c4cccc(OC(F)(F)F)c4)cc32)N=C1N [Compound 262]
